Measurements taken from US11767341B2, “Lincosamide antibiotics and uses thereof” (President and Fellows of Harvard College, priority 2017, dated 2023).
≈ marks a conversion by molar mass, not a printed value.

These compounds were tested on S. aureus BAA 977 iErmA (assay: MIC determination). Conditions: Staphylococcus aureus, BAA977.
Format: cell-based

| Structure (SMILES) | MIC [µg/mL] |
| --- | --- |
| CSC1O[C@H]([C@H](NC(=O)[C@H]2NC[C@@H]3C[C@@H](CCc4ccccc4)CCO[C@H]32)[C@H](C)Cl)C(O)[C@@H](O)[C@H]1O (some centres unmarked) [FSA-510021] | 0.125 (≈ 0.23 µM) |
| CSC1O[C@H]([C@H](NC(=O)[C@H]2NC[C@@H]3C[C@@H](c4ccc(F)cc4F)CCO[C@H]32)[C@H](C)Cl)C(O)[C@@H](O)[C@H]1O (some centres unmarked) [FSA-511078] | 0.25 (≈ 0.454 µM) |

These compounds were tested on S. aureus MP-549 msr(a) USA 300 (assay: MIC determination). Conditions: Staphylococcus aureus, USA300, S. aureus MP-549 msr(a) USA 300.
Format: cell-based

| Structure (SMILES) | MIC [µg/mL] |
| --- | --- |
| CSC1O[C@H]([C@H](NC(=O)[C@H]2NC[C@@H]3C[C@@H](CCc4ccccc4)CCO[C@H]32)[C@H](C)Cl)C(O)[C@@H](O)[C@H]1O (some centres unmarked) [FSA-510021] | 0.125 (≈ 0.23 µM) |
| CSC1O[C@H]([C@H](NC(=O)[C@H]2NC[C@@H]3C[C@@H](c4ccc(F)cc4F)CCO[C@H]32)[C@H](C)Cl)C(O)[C@@H](O)[C@H]1O (some centres unmarked) [FSA-511078] | 0.12 (≈ 0.218 µM) |

What follows are compounds tested on S. pneumoniae MMX 3028 cErmB (assay: MIC determination). Conditions: Streptococcus pneumoniae, MMX3028CERMB; S. pneumoniae MMX 3028 cErmB; read-out: MIC.
Format: cell-based

| Structure (SMILES) | MIC [µg/mL] |
| --- | --- |
| CSC1O[C@H]([C@H](NC(=O)[C@H]2NC[C@@H]3C[C@@H](CCc4ccccc4)CCO[C@H]32)[C@H](C)Cl)C(O)[C@@H](O)[C@H]1O (some centres unmarked) [FSA-510021] | 4 (≈ 7.36 µM) |
| CSC1O[C@H]([C@H](NC(=O)[C@H]2NC[C@@H]3C[C@@H](c4ccc(F)cc4F)CCO[C@H]32)[C@H](C)Cl)C(O)[C@@H](O)[C@H]1O (some centres unmarked) [FSA-511078] | 4 (≈ 7.26 µM) |

The compounds below were run on E. faecalis ATCC 29212 (assay: MIC determination). Conditions: Enterococcus faecalis, ATCC29212, read-out: MIC.
Format: cell-based

| Structure (SMILES) | MIC [µg/mL] |
| --- | --- |
| CSC1O[C@H]([C@H](NC(=O)[C@H]2NC[C@@H]3C[C@@H](CCc4ccccc4)CCO[C@H]32)[C@H](C)Cl)C(O)[C@@H](O)[C@H]1O (some centres unmarked) [FSA-510021] | 0.25 (≈ 0.46 µM) |
| CSC1O[C@H]([C@H](NC(=O)[C@H]2NC[C@@H]3C[C@@H](c4ccc(F)cc4F)CCO[C@H]32)[C@H](C)Cl)C(O)[C@@H](O)[C@H]1O (some centres unmarked) [FSA-511078] | 0.25 (≈ 0.454 µM) |

Each compound was assayed on K. pneumoniae ATCC 10031 (assay: MIC determination). Conditions: Klebsiella pneumoniae, ATCC10031; K. pneumoniae ATCC 10031; read-out: MIC.
Format: cell-based

| Structure (SMILES) | MIC [µg/mL] |
| --- | --- |
| CSC1O[C@H]([C@H](NC(=O)[C@H]2NC[C@@H]3C[C@@H](CCc4ccccc4)CCO[C@H]32)[C@H](C)Cl)C(O)[C@@H](O)[C@H]1O (some centres unmarked) [FSA-510021] | 4 (≈ 7.36 µM) |
| CSC1O[C@H]([C@H](NC(=O)[C@H]2NC[C@@H]3C[C@@H](c4ccc(F)cc4F)CCO[C@H]32)[C@H](C)Cl)C(O)[C@@H](O)[C@H]1O (some centres unmarked) [FSA-511078] | 8 (≈ 14.5 µM) |

Each compound was assayed on E. coli ATCC 25922 (assay: MIC determination). Conditions: Escherichia coli, ATCC25922, E. coli ATCC 25922; read-out: MIC.
Format: cell-based

| Structure (SMILES) | MIC [µg/mL] |
| --- | --- |
| CSC1O[C@H]([C@H](NC(=O)[C@H]2NC[C@@H]3C[C@@H](CCc4ccccc4)CCO[C@H]32)[C@H](C)Cl)C(O)[C@@H](O)[C@H]1O (some centres unmarked) [FSA-510021] | 64 (≈ 118 µM) |
| CSC1O[C@H]([C@H](NC(=O)[C@H]2NC[C@@H]3C[C@@H](c4ccc(F)cc4F)CCO[C@H]32)[C@H](C)Cl)C(O)[C@@H](O)[C@H]1O (some centres unmarked) [FSA-511078] | > 64 |

Each compound was assayed on S. aureus MMX 3035 cErmA (assay: MIC determination). Conditions: Staphylococcus aureus, MMX3035CERMA; S. aureus MMX 3035 cErmA; read-out: MIC.
Format: cell-based

| Structure (SMILES) | MIC [µg/mL] |
| --- | --- |
| CSC1O[C@H]([C@H](NC(=O)[C@H]2NC[C@@H]3C[C@@H](CCc4ccccc4)CCO[C@H]32)[C@H](C)Cl)C(O)[C@@H](O)[C@H]1O (some centres unmarked) [FSA-510021] | 4 (≈ 7.36 µM) |
| CSC1O[C@H]([C@H](NC(=O)[C@H]2NC[C@@H]3C[C@@H](c4ccc(F)cc4F)CCO[C@H]32)[C@H](C)Cl)C(O)[C@@H](O)[C@H]1O (some centres unmarked) [FSA-511078] | > 64 |

These compounds were tested on S. pyogenes ATCC 19615 (assay: MIC determination). Conditions: Streptococcus pyogenes, ATCC19615; S. pyogenes ATCC 19615; read-out: MIC.
Format: cell-based

| Structure (SMILES) | MIC [µg/mL] |
| --- | --- |
| CSC1O[C@H]([C@H](NC(=O)[C@H]2NC[C@@H]3C[C@@H](CCc4ccccc4)CCO[C@H]32)[C@H](C)Cl)C(O)[C@@H](O)[C@H]1O (some centres unmarked) [FSA-510021] | ≤ 0.06 |
| CSC1O[C@H]([C@H](NC(=O)[C@H]2NC[C@@H]3C[C@@H](c4ccc(F)cc4F)CCO[C@H]32)[C@H](C)Cl)C(O)[C@@H](O)[C@H]1O (some centres unmarked) [FSA-511078] | ≤ 0.06 |

What follows are compounds tested on E. faecalis MMX 847 Macrolide-Resistant (assay: MIC determination). Conditions: Enterococcus faecalis; E. faecalis MMX 847 MacRes; read-out: MIC.
Format: cell-based

| Structure (SMILES) | MIC [µg/mL] |
| --- | --- |
| CSC1O[C@H]([C@H](NC(=O)[C@H]2NC[C@@H]3C[C@@H](CCc4ccccc4)CCO[C@H]32)[C@H](C)Cl)C(O)[C@@H](O)[C@H]1O (some centres unmarked) [FSA-510021] | 4 (≈ 7.36 µM) |
| CSC1O[C@H]([C@H](NC(=O)[C@H]2NC[C@@H]3C[C@@H](c4ccc(F)cc4F)CCO[C@H]32)[C@H](C)Cl)C(O)[C@@H](O)[C@H]1O (some centres unmarked) [FSA-511078] | 64 (≈ 116 µM) |

What follows are compounds tested on S. aureus ATCC 29213 (assay: MIC determination). Conditions: Staphylococcus aureus, ATCC29213, S. aureus ATCC 29213; read-out: MIC.
Format: cell-based

| Structure (SMILES) | MIC [µg/mL] |
| --- | --- |
| CSC1O[C@H]([C@H](NC(=O)[C@H]2NC[C@@H]3C[C@@H](CCc4ccccc4)CCO[C@H]32)[C@H](C)Cl)C(O)[C@@H](O)[C@H]1O (some centres unmarked) [FSA-510021] | 0.125 (≈ 0.23 µM) |
| CSC1O[C@H]([C@H](NC(=O)[C@H]2NC[C@@H]3C[C@@H](c4ccc(F)cc4F)CCO[C@H]32)[C@H](C)Cl)C(O)[C@@H](O)[C@H]1O (some centres unmarked) [FSA-511078] | 0.25 (≈ 0.454 µM) |

What follows are compounds tested on E. coli MP-9 ΔTolC (assay: MIC determination). Conditions: Escherichia coli.
Format: cell-based

| Structure (SMILES) | MIC [µg/mL] |
| --- | --- |
| CSC1O[C@H]([C@H](NC(=O)[C@H]2NC[C@@H]3C[C@@H](CCc4ccccc4)CCO[C@H]32)[C@H](C)Cl)C(O)[C@@H](O)[C@H]1O (some centres unmarked) [FSA-510021] | 4 (≈ 7.36 µM) |
| CSC1O[C@H]([C@H](NC(=O)[C@H]2NC[C@@H]3C[C@@H](c4ccc(F)cc4F)CCO[C@H]32)[C@H](C)Cl)C(O)[C@@H](O)[C@H]1O (some centres unmarked) [FSA-511078] | 2 (≈ 3.63 µM) |

The compounds below were run on S. pneumoniae ATCC 49619 (assay: MIC determination). Conditions: Streptococcus pneumoniae, ATCC49619; S. pneumoniae ATCC 49619; read-out: MIC.
Format: cell-based

| Structure (SMILES) | MIC [µg/mL] |
| --- | --- |
| CSC1O[C@H]([C@H](NC(=O)[C@H]2NC[C@@H]3C[C@@H](CCc4ccccc4)CCO[C@H]32)[C@H](C)Cl)C(O)[C@@H](O)[C@H]1O (some centres unmarked) [FSA-510021] | ≤ 0.06 |
| CSC1O[C@H]([C@H](NC(=O)[C@H]2NC[C@@H]3C[C@@H](c4ccc(F)cc4F)CCO[C@H]32)[C@H](C)Cl)C(O)[C@@H](O)[C@H]1O (some centres unmarked) [FSA-511078] | ≤ 0.06 |

The compounds below were run on S. pyogenes MMX 946 Macrolide-Resistant (assay: MIC determination). Conditions: Streptococcus pyogenes; S. pyogenes MMX 946 MacRes; read-out: MIC.
Format: cell-based

| Structure (SMILES) | MIC [µg/mL] |
| --- | --- |
| CSC1O[C@H]([C@H](NC(=O)[C@H]2NC[C@@H]3C[C@@H](CCc4ccccc4)CCO[C@H]32)[C@H](C)Cl)C(O)[C@@H](O)[C@H]1O (some centres unmarked) [FSA-510021] | 1 (≈ 1.84 µM) |
| CSC1O[C@H]([C@H](NC(=O)[C@H]2NC[C@@H]3C[C@@H](c4ccc(F)cc4F)CCO[C@H]32)[C@H](C)Cl)C(O)[C@@H](O)[C@H]1O (some centres unmarked) [FSA-511078] | 16 (≈ 29 µM) |

These compounds were tested on H. influenzae ATCC 49247 (assay: MIC determination). Conditions: Haemophilus influenzae, ATCC49247; H. influenzae ATCC 49247; read-out: MIC.
Format: cell-based

| Structure (SMILES) | MIC [µg/mL] |
| --- | --- |
| CSC1O[C@H]([C@H](NC(=O)[C@H]2NC[C@@H]3C[C@@H](CCc4ccccc4)CCO[C@H]32)[C@H](C)Cl)C(O)[C@@H](O)[C@H]1O (some centres unmarked) [FSA-510021] | 1 (≈ 1.84 µM) |
| CSC1O[C@H]([C@H](NC(=O)[C@H]2NC[C@@H]3C[C@@H](c4ccc(F)cc4F)CCO[C@H]32)[C@H](C)Cl)C(O)[C@@H](O)[C@H]1O (some centres unmarked) [FSA-511078] | 16 (≈ 29 µM) |

These compounds were tested on E. coli MP-74 LptD mutant (assay: MIC determination). Conditions: Escherichia coli.
Format: cell-based

| Structure (SMILES) | MIC [µg/mL] |
| --- | --- |
| CSC1O[C@H]([C@H](NC(=O)[C@H]2NC[C@@H]3C[C@@H](CCc4ccccc4)CCO[C@H]32)[C@H](C)Cl)C(O)[C@@H](O)[C@H]1O (some centres unmarked) [FSA-510021] | 4 (≈ 7.36 µM) |
| CSC1O[C@H]([C@H](NC(=O)[C@H]2NC[C@@H]3C[C@@H](c4ccc(F)cc4F)CCO[C@H]32)[C@H](C)Cl)C(O)[C@@H](O)[C@H]1O (some centres unmarked) [FSA-511078] | 8 (≈ 14.5 µM) |

These compounds were tested on S. pneumoniae MMX 3031 cMefA (assay: MIC determination). Conditions: Streptococcus pneumoniae, MMX3031CMEFA.
Format: cell-based

| Structure (SMILES) | MIC [µg/mL] |
| --- | --- |
| CSC1O[C@H]([C@H](NC(=O)[C@H]2NC[C@@H]3C[C@@H](CCc4ccccc4)CCO[C@H]32)[C@H](C)Cl)C(O)[C@@H](O)[C@H]1O (some centres unmarked) [FSA-510021] | ≤ 0.06 |
| CSC1O[C@H]([C@H](NC(=O)[C@H]2NC[C@@H]3C[C@@H](c4ccc(F)cc4F)CCO[C@H]32)[C@H](C)Cl)C(O)[C@@H](O)[C@H]1O (some centres unmarked) [FSA-511078] | ≤ 0.06 |
